# Test results taken from article PMC10999543, “Identification of kinase modulators as host-directed therapeutics against intracellular methicillin-resistant Staphylococcus aureus” (Frontiers in Cellular and Infection Microbiology, 2024).
# Read-outs that look alike come from different tables or passages of the source.
# Legend:
# HeLa cells = assay: Compound screen by flow cytometry: HeLa cell count as surrogate readout of cell viability (z-scoreHeLa); assay type: cell-based, human; conditions: for cell count rep 1 / z-scoreHeLa rep 1: replicate 1; for cell count rep 2 / z-scoreHeLa rep 2: replicate 2; for cell count rep 3 / z-scoreHeLa rep 3: replicate 3; for z-scoreHeLa mean: mean of 3 replicates
# Summary of the method: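 HeLa cells were infected with GFP-MRSA (mean MOI 6.8 ± 4.6) for 1 h, and extracellular bacteria were killed with 30 µg/ml gentamicin. Cells were then incubated overnight with kinase inhibitors in 5 µg/ml gentamicin, in triplicate against DMSO controls. Flow-cytometric cell count served as a viability surrogate, expressed as a plate z-score.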
# intracellular MRSA = assay type: cell-based, Staphylococcus aureus; conditions: for %GFP+ rep 1 / z-scoreMRSA+ rep 1: replicate 1; for %GFP+ rep 2 / z-scoreMRSA+ rep 2: replicate 2; for %GFP+ rep 3 / z-scoreMRSA+ rep 3: replicate 3; for z-scoreMRSA+ mean: mean of 3 replicates
# Summary of the method: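 HeLa, MRSA-GFP at MOI ~6.8, 1 h infection; gentamicin 30 µg/ml for 15 min; inhibitor plus gentamicin 5 µg/ml overnight, 37°C/5% CO2; triplicate plates; FACS %GFP+ and cell count; hit = z ≤ -2 MRSA+, z ≥ -3 count.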
# [1] = PKIS compound screen raw data, HeLa cell count
# [2] = compound screen, HeLa cell count
# [3] = PKIS compound screen raw data, MRSA-infected HeLa cells
# [4] = Yes/No: effect without cell death
# [5] = compound screen, MRSA-infected HeLa cells
# [6] = PKIS compound screen, HeLa cell count
# [7] = PKIS compound screen, Yes/No call on z-scoreHeLa
# [8] = PKIS compound screen, MRSA-infected HeLa cells
# [9] = PKIS compound screen, Yes/No call (effect without cell death)
# [10] = PKIS compound screen, Yes/No call on z-scoreMRSA+
# [11] = PKIS compound screen, Yes/No call
# [12] = PKIS compounds raw data, HeLa cell count
# [13] = PKIS compounds raw data, MRSA-infected HeLa cells
smiles,measurement,setting,value
Fc1cc(Cl)ccc1Nc1ccnc2cc(-c3ccc(CN4CCCCC4)o3)ccc12 [GW560116X],cell count rep 1,HeLa cells; [1],2203
same,cell count rep 2,HeLa cells; [1],2204
same,cell count rep 3,HeLa cells; [1],1264
same,cell death,HeLa cells; Yes/No call from z-scoreHeLa,No
same,z-scoreHeLa mean,HeLa cells; [2],-1.89
same,z-scoreHeLa rep 1,HeLa cells; [2],-1.55
same,z-scoreHeLa rep 2,HeLa cells; [2],-1.61
same,z-scoreHeLa rep 3,HeLa cells; [2],-2.51
same,%GFP+ rep 1,intracellular MRSA; [3],26.5%
same,%GFP+ rep 2,intracellular MRSA; [3],26.3%
same,%GFP+ rep 3,intracellular MRSA; [3],25.6%
same,effect,intracellular MRSA; Yes/No call from z-scoreMRSA+,No
same,hit,intracellular MRSA; [4],No
same,z-scoreMRSA+ mean,intracellular MRSA; [5],0.73
same,z-scoreMRSA+ rep 1,intracellular MRSA; [5],0.29
same,z-scoreMRSA+ rep 2,intracellular MRSA; [5],0.89
same,z-scoreMRSA+ rep 3,intracellular MRSA; [5],1.02
Cc1ccc(Nc2ccnc(Nc3cccc(C(N)=O)c3)n2)cc1O [GW575808A],cell count rep 1,HeLa cells; [1],19398
same,cell count rep 2,HeLa cells; [1],38059
same,cell count rep 3,HeLa cells; [1],43165
same,z-scoreHeLa mean,HeLa cells; [6],0.31
same,z-scoreHeLa rep 1,HeLa cells; [6],-0.11
same,z-scoreHeLa rep 2,HeLa cells; [6],0.61
same,z-scoreHeLa rep 3,HeLa cells; [6],0.42
same,cell death,HeLa cells; [7],No
same,%GFP+ rep 1,intracellular MRSA; [3],13.4%
same,%GFP+ rep 2,intracellular MRSA; [3],14.8%
same,%GFP+ rep 3,intracellular MRSA; [3],16.1%
same,z-scoreMRSA+ mean,intracellular MRSA; [8],-1.22
same,z-scoreMRSA+ rep 1,intracellular MRSA; [8],-1.41
same,z-scoreMRSA+ rep 2,intracellular MRSA; [8],-1.12
same,z-scoreMRSA+ rep 3,intracellular MRSA; [8],-1.12
same,hit,intracellular MRSA; [9],No
same,effect,intracellular MRSA; [10],No
CCn1c(-c2nonc2N)nc2c(C#CC(C)(C)O)nc(OC[C@H](N)c3ccccc3)cc21 [GSK943949A],cell count rep 1,HeLa cells; [1],779
same,cell count rep 2,HeLa cells; [1],847
same,cell count rep 3,HeLa cells; [1],431
same,cell death,HeLa cells; Yes/No call from z-scoreHeLa,No
same,z-scoreHeLa mean,HeLa cells; [2],-2.76
same,z-scoreHeLa rep 1,HeLa cells; [2],-2.58
same,z-scoreHeLa rep 2,HeLa cells; [2],-2.66
same,z-scoreHeLa rep 3,HeLa cells; [2],-3.04
same,%GFP+ rep 1,intracellular MRSA; [3],19.2%
same,%GFP+ rep 2,intracellular MRSA; [3],16.3%
same,%GFP+ rep 3,intracellular MRSA; [3],15.7%
same,effect,intracellular MRSA; Yes/No call from z-scoreMRSA+,No
same,hit,intracellular MRSA; [4],No
same,z-scoreMRSA+ mean,intracellular MRSA; [5],-1.63
same,z-scoreMRSA+ rep 1,intracellular MRSA; [5],-1.42
same,z-scoreMRSA+ rep 2,intracellular MRSA; [5],-1.53
same,z-scoreMRSA+ rep 3,intracellular MRSA; [5],-1.95
COc1cc(N2CCN(C(C)C)CC2)ccc1Nc1nc(Nc2ccc(F)cc2C(N)=O)c2cc[nH]c2n1 [GSK1220512A],cell death,HeLa cells; [11],No
same,z-scoreHeLa mean,HeLa cells; PKIS compound screen,-0.69
same,z-scoreHeLa rep 1,HeLa cells; PKIS compound screen,-0.95
same,z-scoreHeLa rep 2,HeLa cells; PKIS compound screen,-0.27
same,z-scoreHeLa rep 3,HeLa cells; PKIS compound screen,-0.85
same,cell count rep 1,HeLa cells; [12],3725
same,cell count rep 2,HeLa cells; [12],3908
same,cell count rep 3,HeLa cells; [12],5195
same,effect,intracellular MRSA; [11],No
same,hit,intracellular MRSA; [9],No
same,z-scoreMRSA+ mean,intracellular MRSA; PKIS compound screen,1.45
same,z-scoreMRSA+ rep 1,intracellular MRSA; PKIS compound screen,1.80
same,z-scoreMRSA+ rep 2,intracellular MRSA; PKIS compound screen,1.41
same,z-scoreMRSA+ rep 3,intracellular MRSA; PKIS compound screen,1.13
same,%GFP+ rep 1,intracellular MRSA; [13],18.8%
same,%GFP+ rep 2,intracellular MRSA; [13],17.7%
same,%GFP+ rep 3,intracellular MRSA; [13],19.7%
COC(=O)c1cccc(NC(=O)NC2CCN(c3ccnc(Nc4ccc(OC)cc4)n3)C2)c1 (stereo not drawn) [GSK1379746A],cell count rep 1,HeLa cells; [1],24857
same,cell count rep 2,HeLa cells; [1],18367
same,cell count rep 3,HeLa cells; [1],14326
same,z-scoreHeLa mean,HeLa cells; [6],-0.99
same,z-scoreHeLa rep 1,HeLa cells; [6],-0.90
same,z-scoreHeLa rep 2,HeLa cells; [6],-1.18
same,z-scoreHeLa rep 3,HeLa cells; [6],-0.90
same,cell death,HeLa cells; [11],No
same,cell death,HeLa cells; [7],No
same,z-scoreHeLa mean,HeLa cells; PKIS compound screen,-0.86
same,z-scoreHeLa rep 1,HeLa cells; PKIS compound screen,-1.12
same,z-scoreHeLa rep 2,HeLa cells; PKIS compound screen,-1.01
same,z-scoreHeLa rep 3,HeLa cells; PKIS compound screen,-0.44
same,cell count rep 1,HeLa cells; [12],4181
same,cell count rep 2,HeLa cells; [12],4486
same,cell count rep 3,HeLa cells; [12],4898
same,%GFP+ rep 1,intracellular MRSA; [3],19.0%
same,%GFP+ rep 2,intracellular MRSA; [3],17.4%
same,%GFP+ rep 3,intracellular MRSA; [3],21.2%
same,z-scoreMRSA+ mean,intracellular MRSA; [8],-0.17
same,z-scoreMRSA+ rep 1,intracellular MRSA; [8],0.06
same,z-scoreMRSA+ rep 2,intracellular MRSA; [8],-0.55
same,z-scoreMRSA+ rep 3,intracellular MRSA; [8],-0.01
same,effect,intracellular MRSA; [11],No
same,hit,intracellular MRSA; [9],No
same,effect,intracellular MRSA; [10],No
same,z-scoreMRSA+ mean,intracellular MRSA; PKIS compound screen,-0.13
same,z-scoreMRSA+ rep 1,intracellular MRSA; PKIS compound screen,-0.05
same,z-scoreMRSA+ rep 2,intracellular MRSA; PKIS compound screen,-0.0265
same,z-scoreMRSA+ rep 3,intracellular MRSA; PKIS compound screen,-0.31
same,%GFP+ rep 1,intracellular MRSA; [13],26.8%
same,%GFP+ rep 2,intracellular MRSA; [13],25.9%
same,%GFP+ rep 3,intracellular MRSA; [13],25.6%
COc1cc(Nc2ccnc3ccc(C(F)(F)F)cc23)cc(OC)c1OC [GW577382X],cell count rep 1,HeLa cells; [1],2914
same,cell count rep 2,HeLa cells; [1],2336
same,cell count rep 3,HeLa cells; [1],2608
same,cell death,HeLa cells; Yes/No call from z-scoreHeLa,No
same,z-scoreHeLa mean,HeLa cells; [2],-1.40
same,z-scoreHeLa rep 1,HeLa cells; [2],-1.04
same,z-scoreHeLa rep 2,HeLa cells; [2],-1.51
same,z-scoreHeLa rep 3,HeLa cells; [2],-1.66
same,%GFP+ rep 1,intracellular MRSA; [3],19.6%
same,%GFP+ rep 2,intracellular MRSA; [3],17.8%
same,%GFP+ rep 3,intracellular MRSA; [3],18.8%
same,effect,intracellular MRSA; Yes/No call from z-scoreMRSA+,No
same,hit,intracellular MRSA; [4],No
same,z-scoreMRSA+ mean,intracellular MRSA; [5],-1.17
same,z-scoreMRSA+ rep 1,intracellular MRSA; [5],-1.32
same,z-scoreMRSA+ rep 2,intracellular MRSA; [5],-1.17
same,z-scoreMRSA+ rep 3,intracellular MRSA; [5],-1.02
Cc1cc(-c2ccnc(Nc3cccc(C#N)c3)n2)cc(C)c1O [GSK1440913A],cell count rep 1,HeLa cells; [1],3913
same,cell count rep 2,HeLa cells; [1],3957
same,cell count rep 3,HeLa cells; [1],5747
same,cell death,HeLa cells; Yes/No call from z-scoreHeLa,No
same,z-scoreHeLa mean,HeLa cells; [2],-0.09
same,z-scoreHeLa rep 1,HeLa cells; [2],-0.32
same,z-scoreHeLa rep 2,HeLa cells; [2],-0.27
same,z-scoreHeLa rep 3,HeLa cells; [2],0.32
same,%GFP+ rep 1,intracellular MRSA; [3],19.8%
same,%GFP+ rep 2,intracellular MRSA; [3],21.2%
same,%GFP+ rep 3,intracellular MRSA; [3],19.2%
same,effect,intracellular MRSA; Yes/No call from z-scoreMRSA+,No
same,hit,intracellular MRSA; [4],No
same,z-scoreMRSA+ mean,intracellular MRSA; [5],-0.84
same,z-scoreMRSA+ rep 1,intracellular MRSA; [5],-1.28
same,z-scoreMRSA+ rep 2,intracellular MRSA; [5],-0.34
same,z-scoreMRSA+ rep 3,intracellular MRSA; [5],-0.90
